The target of data set [1] is T1, MMP-2 (Homo sapiens, UniProt P08253).
T1 construct: purchased Calbiochem
T1 sequence (P08253 110-660): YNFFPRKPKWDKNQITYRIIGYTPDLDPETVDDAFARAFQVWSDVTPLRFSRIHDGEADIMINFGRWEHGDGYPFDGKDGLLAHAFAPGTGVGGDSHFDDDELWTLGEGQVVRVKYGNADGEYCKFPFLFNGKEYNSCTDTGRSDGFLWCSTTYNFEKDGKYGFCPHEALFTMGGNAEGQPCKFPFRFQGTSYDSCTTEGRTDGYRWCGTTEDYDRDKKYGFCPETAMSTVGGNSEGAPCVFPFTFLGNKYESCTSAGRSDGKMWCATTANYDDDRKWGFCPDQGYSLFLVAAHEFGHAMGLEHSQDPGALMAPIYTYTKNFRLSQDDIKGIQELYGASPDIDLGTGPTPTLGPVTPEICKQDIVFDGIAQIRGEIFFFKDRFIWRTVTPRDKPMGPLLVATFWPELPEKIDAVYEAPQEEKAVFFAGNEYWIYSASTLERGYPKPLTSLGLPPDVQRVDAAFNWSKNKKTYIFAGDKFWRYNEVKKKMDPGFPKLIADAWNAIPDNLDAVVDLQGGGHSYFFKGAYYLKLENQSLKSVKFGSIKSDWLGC
The experiment in a line: Cleavage of conjugates by MMP-2 in buffer (HPLC). In kind it is biochemical. The note with it: after 6 h incubation with MMP-2; buffer pH 7.5. The procedure:
2.5 μl MMP-2 (Calbiochem) with a specific activity of 60 μU/μl are incubated with 10 nM of the conjugates exemplified in the example series 1-25 in 1 ml of a medium consisting of 50 mM Tris-HCl pH 7.5, 0.2 M NaCl, 10 mM CaCL2*2H2O and 0.05% Brij 35. The enzyme mediated cleavage of the conjugates is detected by HPLC analysis using an RP18 (5 μM) column with 70% HClO4/water (0.4% v/v) as eluent A and acentonitrile as eluent B (UV detection at […]). The efficiency of the cleavage is assessed by comparing the peak areas of the intact conjugate (starting material) and the cleavage product (tripeptide conjugate of camptothecin) after 6 h and 24 h incubation (cf. Table 5).

For data set [2], the system named is HT29. The experiment in a line: Growth inhibition test (MTT), cytotoxic action on tumour cell lines. In kind it is cell-based, human. The note with it: HT29; MTT after day 6; read-out: IC50 values of the cytotoxic action on tumour cell lines, HT29. The procedure:
(§1) The human large intestine cell lines SW 480 and HT29 (ATCC No. CCL 228 and HTB38 and the mouse melanoma cell line B16F10 (CRL 6475) were grown to confluence in Roux dishes in RPMI 1640 medium with addition of 10% FCS. They were then trypsinized and taken up in RPMI plus 10% FCS to a cell count of 50,000 cells or, for B16F10, 20,000 cells per ml. 100 μl of cell suspension/well were added to a 96 microwell plate and incubated at 37° C. for 1 day in a CO2 incubator. A further 100 μl of RPMI medium and 1 μl of DMSO were then added with the test substances. The growth was checked after day 6. For this, 25 μl of MTT solution (3-(4,5-dimethylthiazol-2-yl)-2,5-diphenyltetrazolium bromide) was added to each well at a starting concentration of 5 mg/ml of H2O. The plate was incubated at 37° C. for 5 hours in a CO2 incubator. The medium was then aspirated and 100 μl of i-propanol/well were added. After shaking with 100 μl of H2O for 30 min, the extinction was measured at 595 nm using a Multiplate Reader (BIO-RAD) 3550-UV).
(§2) The cytostatic action is indicated in Table 2 as an IC50 value, in each case for the individual cell lines.

In data set [3] the test system is SW 480. The description is as above. To be noted: SW480; MTT after day 6; read-out: IC50 values of the cytotoxic action on tumour cell lines, SW480. In kind it is cell-based, human. The procedure:
as §1, §2

Data set [4] has as its system B16F10. The description is as above. It counts as cell-based, mouse. The note with it: B16F10; MTT after day 6; read-out: IC50 values of the cytotoxic action on tumour cell lines, B16F10. The procedure:
as §1, §2

Data set [5] has as its target T2, αvβ3 receptor (Homo sapiens, UniProt P05106+P06756).
T2 construct: αvβ3 from human A375 cells was purified; endogenous in cells; host or cells: human A375 cells (receptor purified from the cells, analogous to Wong et al. 1996)
The experiment in a line: αvβ3 binding test (echistatin displacement, WGA SPA beads). The note with it: IC50 values of the binding to the αvβ3 receptor, αvβ3 from human A375 cells. The procedure: αvβ3 from human A375 cells was purified analogously to a procedure which was described by Wong et al. (Molecular Pharmacology, 50, 529-537 (1996)). In each case, 10 μl of αvβ3 (5 ng) in TBS pH 7.6, 2 mM CaCl2, 1 mM MgCl2, 1% n-octylglucopyranoside (Sigma); 10 μl of test substance in TBS pH 7.6, 0.1% DMSO and 45 μl of TBS pH 7.6, 2 mM CaCl2, 1 mM MgCl2, 1 mM MnCl2 were incubated at room temperature for 1 h. In each case, 25 μl of WGA SPA beads (Amersham, 4 mg/ml) and 10 μl of echistatin (0.1 μCi, Amersham, chloramine-T labelled) were then added. After 16 hours at room temperature, the samples were measured in a scintillation measuring apparatus (Wallac 1450).

Experimental findings from US20020183256A1, “Cytostatic-integrin conjugates having specifically cleavable linking units” (priority 2000, published 2002) are described below.

For orientation: IC50 means the concentration needed to halve the response being measured.

*1 amine or outer side, *2 acyl side, *3 side chain or, on linkers, in order; H or OH if unused. Where a SMILES comes first, the peptide text is derived from it. [ ]: non-standard residue; d: D form. The star is where a group is joined. Camptothecin(20R,20-O) = CC[C@]1(O*)C(=O)OCc2c1cc1n(c2=O)Cc2cc3ccccc3nc2-1; X2 = CCCNC(=O)Nc1cccc(S(=O)(=O)Nc2cccc(C(CC(=O)O)NC(=O)Nc3ccc(N*)cc3)c2)c1; X3 = O=C(Nc1cccc(-c2ccc(S(=O)(=O)*)cc2)c1)Nc1nc2ccccc2[nH]1; X5 = O=C(Nc1cccc(-c2cccc(S(=O)(=O)*)c2)c1)Nc1nc2ccccc2[nH]1; X1 = CCCNC(=O)Nc1cccc(S(=O)(=O)Nc2cccc(C(CC(=O)O)N*)c2)c1; NH(1,4-C6H4)NHCS = S=C(Nc1ccc(N[*:1])cc1)[*:2]; X4 = O=C(O)CC(N[*:1])c1cccc(NC(=S)[*:2])c1; CO = O=C([*:1])[*:2]; GABA = NCCCC(=O)O

T2 sequence (P06756 31-889 limits assumed): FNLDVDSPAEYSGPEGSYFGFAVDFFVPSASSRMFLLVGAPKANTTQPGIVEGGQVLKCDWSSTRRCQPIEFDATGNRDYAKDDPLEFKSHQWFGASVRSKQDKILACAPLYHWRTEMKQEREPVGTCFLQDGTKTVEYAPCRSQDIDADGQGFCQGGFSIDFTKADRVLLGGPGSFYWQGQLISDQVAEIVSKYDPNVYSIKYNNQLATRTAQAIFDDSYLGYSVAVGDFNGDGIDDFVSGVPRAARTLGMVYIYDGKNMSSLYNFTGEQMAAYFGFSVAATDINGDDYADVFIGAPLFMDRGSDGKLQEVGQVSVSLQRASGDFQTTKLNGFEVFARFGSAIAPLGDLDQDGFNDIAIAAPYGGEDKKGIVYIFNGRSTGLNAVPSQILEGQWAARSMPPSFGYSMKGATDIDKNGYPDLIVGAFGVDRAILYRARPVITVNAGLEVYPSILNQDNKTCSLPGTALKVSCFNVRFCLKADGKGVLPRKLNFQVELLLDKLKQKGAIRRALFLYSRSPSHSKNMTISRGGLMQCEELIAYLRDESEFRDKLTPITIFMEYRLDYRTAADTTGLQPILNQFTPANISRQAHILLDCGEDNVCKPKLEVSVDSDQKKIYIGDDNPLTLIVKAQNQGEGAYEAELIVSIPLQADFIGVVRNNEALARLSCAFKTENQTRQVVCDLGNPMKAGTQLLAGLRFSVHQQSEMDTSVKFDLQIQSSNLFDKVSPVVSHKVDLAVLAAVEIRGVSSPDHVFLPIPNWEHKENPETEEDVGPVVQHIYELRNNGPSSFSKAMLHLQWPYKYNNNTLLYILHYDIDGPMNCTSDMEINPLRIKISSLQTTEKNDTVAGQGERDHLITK
T2 sequence (P06756 891-1048 partner limits assumed): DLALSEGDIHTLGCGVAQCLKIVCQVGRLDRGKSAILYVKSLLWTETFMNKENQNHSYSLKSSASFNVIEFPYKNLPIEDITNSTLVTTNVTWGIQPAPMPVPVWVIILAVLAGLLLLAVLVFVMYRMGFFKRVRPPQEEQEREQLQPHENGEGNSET
T2 sequence (P05106 27-788): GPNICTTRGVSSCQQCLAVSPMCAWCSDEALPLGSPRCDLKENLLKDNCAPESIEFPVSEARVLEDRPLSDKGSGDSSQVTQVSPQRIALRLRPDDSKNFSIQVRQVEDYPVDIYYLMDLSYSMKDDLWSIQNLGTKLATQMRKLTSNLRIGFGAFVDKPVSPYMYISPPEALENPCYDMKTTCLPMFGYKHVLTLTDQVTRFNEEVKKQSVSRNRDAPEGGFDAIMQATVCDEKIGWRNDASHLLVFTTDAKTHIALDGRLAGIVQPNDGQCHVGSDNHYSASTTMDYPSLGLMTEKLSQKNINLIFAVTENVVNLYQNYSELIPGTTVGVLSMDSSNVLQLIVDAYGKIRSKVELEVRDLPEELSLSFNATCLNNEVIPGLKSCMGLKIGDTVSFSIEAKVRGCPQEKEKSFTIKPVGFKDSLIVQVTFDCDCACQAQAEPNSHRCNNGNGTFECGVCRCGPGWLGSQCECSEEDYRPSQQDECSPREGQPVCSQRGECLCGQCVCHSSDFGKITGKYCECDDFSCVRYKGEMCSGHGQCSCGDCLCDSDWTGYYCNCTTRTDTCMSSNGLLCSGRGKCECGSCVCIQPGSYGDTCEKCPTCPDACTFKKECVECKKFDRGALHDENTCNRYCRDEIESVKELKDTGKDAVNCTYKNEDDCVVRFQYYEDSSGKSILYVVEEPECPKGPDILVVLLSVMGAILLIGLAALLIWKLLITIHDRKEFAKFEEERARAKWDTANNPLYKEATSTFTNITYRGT

In the case of `CC[C@]1(OC(=O)[C@H](NC(=O)[C@@H](Cc2c[nH]cn2)NC(=O)[C@@H](CC(C)C)NC(=O)CNC(=O)[C@H](CC(C)C)NC(=O)[C@H]2CCCN2C(=S)Nc2cccc(C(CC(=O)O)NS(=O)(=O)c3ccc(-c4cccc(NC(=O)Nc5nc6ccccc6[nH]5)c4)cc3)c2)C(C)C)C(=O)OCc2c1cc1n(c2=O)Cc2cc3ccccc3nc2-1` (stereo partly drawn) [Example 4] (X3-[X4][dP]LG[dL][dH][dV]-{Camptothecin(20R,20-O)}), the “MMP-2 mediated cleavage Peak area product/educt x100” value in data set [1] stood at 6. In addition, the IC50 in data set [2] is 90 nM; in data set [3] it was 70 nM; in data set [4], 400 nM; in data set [5], 150 nM.
On the same counts, the results for `CC[C@]1(OC(=O)[C@H](NC(=O)[C@@H](Cc2c[nH]cn2)NC(=O)[C@@H](CC(C)C)NC(=O)CNC(=O)[C@H](CC(C)C)NC(=O)[C@H]2CCCN2C(=S)Nc2cccc(C(CC(=O)O)NS(=O)(=O)c3cccc(-c4cccc(NC(=O)Nc5nc6ccccc6[nH]5)c4)c3)c2)C(C)C)C(=O)OCc2c1cc1n(c2=O)Cc2cc3ccccc3nc2-1` (stereo partly drawn) [Example 5] (X5-[X4][dP]LG[dL][dH][dV]-{Camptothecin(20R,20-O)}) are 5, 100 nM, 80 nM, 350 nM and 6000 nM.
On the same counts, the results for `CCCNC(=O)Nc1cccc(S(=O)(=O)Nc2cccc(C(CC(=O)O)NC(=O)Nc3ccc(NC(=O)N4CCC[C@@H]4C(=O)N[C@@H](CC(C)C)C(=O)NCC(=O)N[C@H](CC(C)C)C(=O)N[C@H](Cc4c[nH]cn4)C(=O)N[C@@H](C(=O)O[C@@]4(CC)C(=O)OCc5c4cc4n(c5=O)Cc5cc6ccccc6nc5-4)C(C)C)cc3)c2)c1` (stereo partly drawn) [Example 6] ({X2-CO}-[dP]LG[dL][dH][dV]-{Camptothecin(20R,20-O)}) are 33, 40 nM, 50 nM, 150 nM and 60 nM.
On the same counts, the results for `CCCNC(=O)Nc1cccc(S(=O)(=O)Nc2cccc(C(CC(=O)O)NC(=O)Nc3ccc(NC(=O)N4CCC[C@@H]4C(=O)N[C@@H](CC(C)C)C(=O)NCC(=O)N[C@H](CC(C)C)C(=O)N[C@H](CC(N)=O)C(=O)N[C@@H](C(=O)O[C@@]4(CC)C(=O)OCc5c4cc4n(c5=O)Cc5cc6ccccc6nc5-4)C(C)C)cc3)c2)c1` (stereo partly drawn) [Example 12] ({X2-CO}-[dP]LG[dL][dN][dV]-{Camptothecin(20R,20-O)}) are 70, 30 nM, 40 nM, 150 nM and 300 nM.
For the compound `CCCNC(=O)Nc1cccc(S(=O)(=O)Nc2cccc(C(CC(=O)O)NC(=O)Nc3ccc(NC(=S)N4CCC[C@@H]4C(=O)N[C@@H](CC(C)C)C(=O)NCC(=O)N[C@H](CC(C)C)C(=O)N[C@H](CSC)C(=O)N[C@@H](C(=O)O[C@@]4(CC)C(=O)OCc5c4cc4n(c5=O)Cc5cc6ccccc6nc5-4)C(C)C)cc3)c2)c1` (stereo partly drawn) [Example 14] ({X1-CO}-[NH(1,4-C6H4)NHCS][dP]LG[dL][dC](Me)[dV]-{Camptothecin(20R,20-O)}), the “MMP-2 mediated cleavage Peak area product/educt x100” value in data set [1] turned out to be 5. The IC50 stood at 60 nM in data set [2], 50 nM in data set [3], 400 nM in data set [4] and 70 nM in data set [5].
As to `CCCNC(=O)Nc1cccc(S(=O)(=O)Nc2cccc(C(CC(=O)O)NC(=O)Nc3ccc(NC(=O)NCCCC(=O)N4CCC[C@@H]4C(=O)N[C@@H](CC(C)C)C(=O)NCC(=O)N[C@H](CC(C)C)C(=O)N[C@H](Cc4c[nH]cn4)C(=O)N[C@@H](C(=O)O[C@@]4(CC)C(=O)OCc5c4cc4n(c5=O)Cc5cc6ccccc6nc5-4)C(C)C)cc3)c2)c1` (stereo partly drawn) [Example 17] ({X2-CO-GABA}-[dP]LG[dL][dH][dV]-{Camptothecin(20R,20-O)}), in data set [1], the “MMP-2 mediated cleavage Peak area product/educt x100” value came out at 16. Moreover, the IC50 was 100 nM in data set [2], 70 nM in data set [3], 600 nM in data set [4] and 50 nM in data set [5].
As for `CCCNC(=O)Nc1cccc(S(=O)(=O)Nc2cccc(C(CC(=O)O)NC(=O)Nc3ccc(NC(=O)NCCCC(=O)N4CCC[C@@H]4C(=O)N[C@@H](CC(C)C)C(=O)NCC(=O)N[C@H](CC(C)C)C(=O)N[C@H](CC(N)=O)C(=O)N[C@@H](C(=O)O[C@@]4(CC)C(=O)OCc5c4cc4n(c5=O)Cc5cc6ccccc6nc5-4)C(C)C)cc3)c2)c1` (stereo partly drawn) [Example 18] ({X2-CO-GABA}-[dP]LG[dL][dN][dV]-{Camptothecin(20R,20-O)}), in data set [1], the “MMP-2 mediated cleavage Peak area product/educt x100” value came out at 51. Further, the IC50 in data set [2] stood at 25 nM; in data set [3] it was 35 nM; in data set [4], 70 nM; in data set [5] it was 20 nM.
